Data published in patent US7094557B2, “2-Methyl-3-butenyl-1-pyrophosphoric acid salt and agent for treating lymphocytes” (Chugai Seiyaku Kabushiki Kaisha, priority 1999, dated 2006).
Like-named read-outs stand apart in the source and are kept apart here.

Key:
[1] = system: Vγ2Vδ2 type T cells; conditions: prior art; cited from earlier work
[2] = system: human Vγ2Vδ2 type T cells; assay: Proliferation of Vγ2Vδ2 type T cells in treated peripheral blood mononuclear cells (ratio in CD3 cells); type: cell-based; conditions: day 11, peripheral blood mononuclear cells of volunteer G
Procedure: After 12 days, the cells were collected.
10 ml of the peripheral blood collected from a healthy volunteer G was subjected to Ficoll-Paque specific gravity centrifugation to purify the peripheral blood mononuclear cells and they were suspended in a Yssel's medium. The cells were apportioned into a 24-hole plate so that the number of the cells becomes a concentration of 2.5 million/1.5 ml/hole, and then, according to the above-mentioned method, treatments 1 to 5 were conducted as shown in Table 1. […] On the day 11 after conducting the treatment, a ratio of Vγ2Vδ2 type T cells in existing CD3 cells was calculated.

[3] = system: normal peripheral blood cells of A; conditions: treated peripheral bloods of A (after freezing and thawing) and F on normal peripheral blood cells of A
Procedure: In Test examples, treatment of the peripheral blood by 2-methyl-3-butenyl-1-pyrophosphoric acid or by a salt thereof was conducted as follows unless otherwise specified. Lymphocytes contained in the peripheral blood derived from healthy volunteer were treated so that the final concentration of the pyrophosphoric acid compound was 20 μM, and cultured in a Yssel's medium under conditions of temperature at 37° C. and a carbon dioxide concentration of 5%. […] After 12 days, the cells were collected.

[4] = for Stable preservation time in solution: neutral aqueous solution
[5] = system: human Vγ2Vδ2 type T cell clones

Compound	Concentration required to activate Vγ2Vδ2 type T cells [1]	Vγ2Vδ2 type T cells/CD3 cells ([2]; 2 μM sodium salt + interleukin-2 10 U/ml) [%]	Vγ2Vδ2 type T cells/CD3 cells ([2]; 20 μM sodium salt + interleukin-2 10 U/ml) [%]	Vγ2Vδ2 type T cells/CD3 cells ([2]; 200 μM sodium salt + interleukin-2 10 U/ml) [%]	Cytotoxicity of treated Vγ2Vδ2 type T cells on normal cells [3]	Dissociation of inorganic pyrophosphoric acid ([4]; acidic range of pH 4 or less)	Stable preservation time in solution ([4]; pH 6 to 7, room temperature)	Stable preservation time in solution ([4]; pH 6 to 7, −20° C.)	Amount in whose presence the human Vγ2Vδ2 type T cells proliferate [5]	Amount that can stimulate the cells ([5]; human Vγ2Vδ2 type T cell clones)
C=C(C)CCOP(=O)(O)OP(=O)(O)O [isopentenyl pyrophosphoric acid]	several hundreds of μM to several mM									
CCOP(=O)(O)O [mono ethyl phosphoric acid]	several hundreds of μM to several mM									
C=CC(C)COP(=O)([O-])OP(=O)([O-])[O-].[Na+].[Na+].[Na+] (centres unmarked) [sodium salt of 2-methyl-3-butenyl-1-pyrophosphoric acid]		58.3	85.5	94.5	do not attack the normal cells	observed within a few minutes	more than one week	more than one year	several hundreds μM	several hundreds nM to several tens μM
